{"source": "paper PMC11594329", "about": "“Development of LAT1-Selective Nuclear Medicine Therapeutics Using Astatine-211” (International Journal of Molecular Sciences, 2024)", "key": {"[1]": {"experiment": "Single dose intravenous toxicity study (hematology, pathology) in ICR mice", "type": "in vivo", "details": "ICR mice male and female, 1 MBq/mouse", "method": "Toxicity studies were performed using ^211At-AAMT-O-Me-L, which appeared to have the highest safety profile based on pharmacokinetic results. Labeled material was administered to ICR mice (male and female) at a dose of 1 MBq/mouse with a clear therapeutic effect, and samples were collected the day after administration and 5, 14, and 28 days later for blood and pathological examination.\nDevelopment of LAT1-selective nuclear medicine therapeutics\nKazuko Kaneda-Nakashima 1, 2*, Yoshifumi Shirakami 2, Kentaro Hisada 1, Sifan Feng 1, Yuichiro Kadonaga 2, Kazuhiro Ooe 2, Tadashi Watabe 3, Yoshiyuki Manabe 2, 4, Atsushi Shimoyama 2, 4, Masashi Murakami 2, Atsushi Toyoshima 2, Hiromitsu Haba 5, Yoshikatsu Kanai 6, Koichi Fukase 2, 4 […]\nS1. Hematological analysis\nS1.1. Animal preparation and administration of 211At-AAMT-O-Me-L\nThis study was conducted in compliance with the Animal Experiment […]\n(Hamamatsu, Japan), respectively. […] General condition and body weight were monitored. […]\nAfter the prescribed observation time, blood was collected under anesthesia and the animals were euthanized. […] Red blood cell count (RBC), hemoglobin concentration (Hb), hematocrit (Ht), white blood cell count (WBC), platelet count (platelet), lymphocytes (%Lymph), monocytes (%Mon), and granulocytes (%Gra) were calculated (Supplementary Table S2). […]"}, "[2]": {"experiment": "Stability of labeled compound by TLC after labeling", "type": "physicochemical", "details": "after 24 h and 48 h", "method": "All precursors were labeled by “Shirakami Reaction” and purified using an HLB column (Waters Corp, Waltham, MA, USA). All structures are shown in Supplementary Figure S1. After purification, the solution was supplemented with 1% (v/w) of ascorbic acid. The retention time of (S)-2-amino-3-(3-(astato-^211At)-4-methoxyphenyl)-2-methylpropanic acid (^211At-AAMT-OMe-L) determined using High Performance Liquid Chromatography (HPLC) (concentration: 1 MBq/mL, Flow: 1 mL/min; absorbance = 226 nm) was 12.91 min. A COSMOSIL Packed 5C18-MS-II (4.6 mm × 150 mm) Column was used at 40 °C. Mobile phase A was 0.1% formic acid and B was acetonitrile (10–60%, 20 min). […] The stability of ^211At-AAMT-OMe-L in its unpurified state was analyzed by thin layer chromatography (TLC). BAS IP MS 2025E (GE Healthcare Technologies Inc., Chicago, IL, USA) was used for imaging. […] Because optical isomers were only examined for ^211At-AAMT-OMe-L and the remaining labeled products were all L-isomers, the DL notation was omitted when optical isomers were not compared. ^211At-AAMT-O-Me-L in the crude product solution was detected at Rf = 0.80, yielding a radiochemical yield (RCY) of 81.3%. The radiochemical yield and purity of the purified product were 81% and 98%, respectively. ^211At-AAMT-O-Me-D in the crude product solution was detected at Rf = 0.80, yielding a radiochemical yield (RCY) of 79.6%. […]"}}, "data": [{"smiles": "COc1ccc(C[C@](C)(N)C(=O)O)cc1[211At]", "note": "[^211At-AAMT-O-Me-L, (S)-2-amino-3-(3-(astato-^211At)-4-methoxyphenyl)-2-methylpropanic acid]", "values": [{"measurement": "Toxicity findings (blood and pathological examination)", "setting": "[1]; day after administration", "result": "no effects were observed"}, {"measurement": "Toxicity findings (blood and pathological examination)", "setting": "[1]; five days after administration, subsequently cured", "result": "hematopoietic disorders originating from radiation exposure were observed"}, {"measurement": "Stability in unpurified state by TLC", "setting": "[2]", "result": "almost no degradation"}]}]}
